Source: patent publication US10138222B2, “Substituted benzamides as RIPK2 inhibitors” (Boehringer Ingelheim International GmbH, priority 2016, dated 2018)

Target: RIPK2 (Homo sapiens (Human), UniProt O43353)
Assay: RIPK2 inhibition, ADP-Glo Kinase Assay
Type: biochemical
Settings: 8His-RIPK2 FL enzyme 8 nM, ATP 5 μM, 15 minutes pre-incubation, 60 minutes at 37° C., luminescence
Outline: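 Full-length 8His-RIPK2 (8 nM) preincubated 15 min at RT with compound (1% DMSO), then 5 μM ATP added for 60 min at 37 °C in HEPES pH 7.5 buffer with Mg2+/Mn2+. ADP measured by ADP-Glo luminescence; activity expressed as % of vehicle control, no-enzyme wells as low control.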

Chain of RIPK2 (O43353 whole entry): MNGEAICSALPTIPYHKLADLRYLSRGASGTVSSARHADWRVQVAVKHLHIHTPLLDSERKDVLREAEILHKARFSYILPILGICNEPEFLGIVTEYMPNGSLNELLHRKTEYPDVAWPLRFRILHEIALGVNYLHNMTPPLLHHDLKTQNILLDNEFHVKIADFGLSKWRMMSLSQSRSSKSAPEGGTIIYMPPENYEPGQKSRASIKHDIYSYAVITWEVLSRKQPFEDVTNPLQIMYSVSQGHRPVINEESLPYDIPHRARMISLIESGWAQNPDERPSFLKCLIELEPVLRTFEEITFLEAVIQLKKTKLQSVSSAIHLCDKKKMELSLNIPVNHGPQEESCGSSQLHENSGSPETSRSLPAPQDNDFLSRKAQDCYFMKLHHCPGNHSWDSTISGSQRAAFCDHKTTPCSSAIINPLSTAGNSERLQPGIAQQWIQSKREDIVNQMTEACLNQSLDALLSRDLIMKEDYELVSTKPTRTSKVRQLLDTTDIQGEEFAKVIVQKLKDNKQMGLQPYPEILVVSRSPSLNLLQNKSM

IC50	Structure (SMILES)
1.3 nM	Cc1cc(F)c(C(=O)NC2CC2)cc1-c1cnn(-c2cncc(N[C@H]3CCN(C)C[C@H]3F)c2)c1 [Example 169]
1.8 nM	Cc1cc(F)c(C(=O)NC2CC2)cc1-c1cnn(-c2cncc(N[C@@H]3CCN(C)C[C@@H]3F)c2)c1 [Example 170]
1.8 nM	CO[C@@H]1CN(C)CC[C@@H]1Nc1cncc(-n2cc(-c3cc(C(=O)NC4CC4)c(F)cc3Cl)cn2)c1 [Example 173, 4-Chloro-N-cyclopropyl-2-fluoro-5-{1-[5-((3R,4S)-3-methoxy-1-methyl-piperidin-4-ylamino)-pyridin-3-yl]-1H-pyrazol-4-yl}-benzamide]

The remaining lines, values behind:

Structure (SMILES)	IC50
Cc1ccc(C(=O)NC2CC2)cc1-c1cnn(-c2cncc(NC3CCN(CC4COCCO4)CC3)c2)c1 (stereo not shown) [Example 168, N-cyclopropyl-3-[1-(5-{[1-(1,4-dioxan-2-ylmethyl)piperidin-4-yl]amino}pyridin-3-yl)-1H-pyrazol-4-yl]-4-methylbenzamide]	0.95 nM
Cc1cc(F)c(C(=O)NC2CC2)cc1-c1cnn(-c2cncc(N3CCC(N(C)C)CC3)c2)c1 [Example 171, N-Cyclopropyl-5-[1-(4-dimethyl-amino-3,4,5,6-tetrahydro-2H-[1,3″]bipyridinyl-5″-yl)-1H-pyrazol-4-yl]-2-fluoro-4-methyl-benzamide]	1.4 nM
Cc1cc(F)c(C(=O)NC2CC2)cc1-c1cnn(-c2cncc(OC[C@H]3CCN(C)C3)c2)c1 [Example 172, N-Cyclopropyl-2-fluoro-4-methyl-5-{1-[5-((S)-1-methyl-pyrrolidin-3-ylmethoxy)-pyridin-3-yl]-1H-pyrazol-4-yl}-benzamide]	1.8 nM
Cc1cc(F)c(C(=O)NC2CC2)cc1-c1cnn(-c2cncc(NC3CCN(CCF)CC3)c2)c1 [Example 174, N-Cyclopropyl-2-fluoro-5-(1-{5-[1-(2-fluoro-ethyl)-piperidin-4-ylamino]-pyridin-3-yl}-1H-pyrazol-4-yl)-4-methyl-benzamide]	1.5 nM
